The test relates to male rats. Briefly: Rat procopulatory actions (copulatory behavior with receptive female). Type of test: in vivo, Long-Evans rats. As for the experimental part:
Male Long-Evans rats (300-600 g; n=15 per group) were injected with saline or XVIb (1.5-30.5 mg/kg; ip) 5 minutes prior to being paired with a female rat sexually receptive by administration of estradiol benzoate (25 μg; 48 hours prior to testing) and progesterone (1 mg/kg; 4 hours prior to testing). Mount latency, intromission latency, ejaculation latency, mounts, intromissions, ejaculations and post ejaculatory interval were recorded over a 30 minutes observation period.
In Table 3, the effect of compound XVIb on copulatory behavior in male rats is shown. Data are expressed as mean (sem for 15 test animals). Latency is the time in seconds to appearance of that behavior. Ejaculations are the number of such events during 30 minutes of observation. Intromissions are the number of such events before ejaculation. Post ejaculatory interval is the time in seconds from ejaculation on intromission to the first mount of the next copulatory sequence. P values derived from two-tailed t-test for significance between mean values (α<0.05).

[1] abbreviates: 15 mg/kg ip, n=15, 30 minutes observation.

Structures can show the parent of a compound that is named as a salt.

Regarding `CN1CCN(C(=O)Cc2ccc3ccccc3c2)CC1` [Compound XVIb, 1-Methyl-4(2-naphthaleneacetyl)piperazine monohydrochloride], the “number of intromissions (in words)” value (7.5 mg/kg and 30.5 mg/kg only, data is not shown) is on record as “reducing the number of intromissions”. For the same compound, the Post ejaculatory interval (15 mg/kg ip, n=15) amounted to 426.6 ± 28.5 s. Under setting [1], this compound returned an Ejaculation latency of 330.9 ± 31.5 s, an Intromission latency of 405.1 ± 88.0 s and a Mount latency of 204.5 ± 31.9 s. Where the note is “15 mg/kg ip, n=15, before ejaculation”, this compound had an Intromissions of 6.9 ± 0.7. Also, where the note is “15 mg/kg ip, n=15, during 30 minutes of observation”, the ejaculations turned out to be 4.7 ± 0.2. Under “any of doses tested (1.5-30.5 mg/kg ip)”, the “Post ejaculatory interval (in words)” value was “not affected”. Moreover, the “copulatory behaviors (in words)” value (doses above and below 15 mg/kg) was “without significant effects”.
